Assay results reported in article PMC4084896 (PLoS ONE, 2014).
Converted amounts (≈) assume the structure as drawn.

Columns and labels:
[1] = tested on: C. albicans 1; test: MIC assessment, microdilution; type: cell-based; settings: Candida albicans
Procedure: (§1) Antifungal activity was assessed using the standard microdilution method determining the minimum inhibitory concentrations (MICs) of the tested samples leading to inhibition of yeast growth. Disposable microtiter plates were used for the tests. The samples were diluted in brain heart infusion broth (HiMedia). […] C. albicans, C. krusei, C. tropicalis and C. parapsilosis. […] Subsequently, 100 µL were transferred into the first microplate well and serially diluted by a factor of 2. The prepared microplates were inoculated with a standard amount of the tested Candida spp. – the inoculum density in a well was equal to 10^5 CFU/mL. […] The minimum fungicidal concentration (MFC) is the minimum concentration of the sample required to kill the yeast after a defined period of incubation. The MFCs were determined by the inoculation method. With an applicator, 10 µL were transferred from the microplate wells with defined concentrations of the tested sample and inoculated onto Sabouraud agar (Trios). The MFC was determined as the lowest concentration that inhibited the visible growth of the used yeast. For growth curve assessment, the samples were serially diluted in 96-well microtiter plates. […] Absorbance (630 nm) was measured every hour during 24 hours and the obtained values were used to plot growth curves

[2] = tested on: C. albicans 978; test: MIC assessment, microdilution; type: cell-based; settings: Candida albicans
Procedure: as §1

[3] = tested on: C. krusei 094; test: MIC assessment, microdilution; type: cell-based; settings: Pichia kudriavzevii
Procedure: as §1

[4] = tested on: C. krusei 3; test: MIC assessment, microdilution; type: cell-based; settings: Pichia kudriavzevii
Procedure: as §1

[5] = tested on: C. parapsilosis 6; test: MIC assessment, microdilution; type: cell-based; settings: Lodderomyces parapsilosis
Procedure: as §1

[6] = tested on: C. tropicalis 5; test: MIC assessment, microdilution; type: cell-based; settings: Candida tropicalis
Procedure: as §1

[7] = target: T1, glucocorticoid receptor (GR) (Homo sapiens, UniProt P04150); test: GR gene reporter assay in AZ-GR cells, agonist mode; type: cell-based
T1 sequence (P04150 1-777): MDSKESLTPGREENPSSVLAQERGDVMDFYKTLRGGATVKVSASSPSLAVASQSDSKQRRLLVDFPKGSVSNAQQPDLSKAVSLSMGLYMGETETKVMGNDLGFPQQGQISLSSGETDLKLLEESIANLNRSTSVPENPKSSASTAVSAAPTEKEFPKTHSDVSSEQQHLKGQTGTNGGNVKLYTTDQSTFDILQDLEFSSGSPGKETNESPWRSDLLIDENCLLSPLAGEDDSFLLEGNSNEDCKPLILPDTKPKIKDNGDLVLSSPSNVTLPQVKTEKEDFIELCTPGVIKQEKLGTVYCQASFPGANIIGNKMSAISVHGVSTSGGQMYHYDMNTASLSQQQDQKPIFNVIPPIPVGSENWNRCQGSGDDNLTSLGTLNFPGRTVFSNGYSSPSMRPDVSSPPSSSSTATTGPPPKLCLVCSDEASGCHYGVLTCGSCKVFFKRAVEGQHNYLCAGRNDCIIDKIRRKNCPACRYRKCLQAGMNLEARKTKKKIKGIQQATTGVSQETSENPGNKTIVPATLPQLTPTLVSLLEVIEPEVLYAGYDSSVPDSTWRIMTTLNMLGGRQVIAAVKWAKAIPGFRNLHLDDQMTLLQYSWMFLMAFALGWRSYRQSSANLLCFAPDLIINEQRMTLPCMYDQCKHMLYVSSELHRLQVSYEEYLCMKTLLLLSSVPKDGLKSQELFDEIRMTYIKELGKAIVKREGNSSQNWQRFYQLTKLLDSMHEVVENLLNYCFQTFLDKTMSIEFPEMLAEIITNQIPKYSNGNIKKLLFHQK
Text: (§2) A stably transfected gene reporter cell line AZ-AHR, derived from human hepatoma HepG2 cells transfected with a construct containing several AhR binding sites upstream of a luciferase reporter gene, was used for assessment of AhR transcriptional activity. A stably transfected gene reporter cell line AZ-GR, derived from human cervix carcinoma HeLa cells transfected with a construct containing several GR response elements upstream of a luciferase reporter gene, was used for assessment of GR transcriptional activity. Cells were incubated for 24 h with tested compounds and/or vehicle (DMSO; 0.1% v/v), in the presence or absence of TCDD (5 nM; AZ-AHR cells) or DEX (100 nM; AZ-GR cells). After the treatments, cells were lysed and luciferase activity was measured. In parallel, cell viability was determined by conventional MTT test.
(§3) There is multiple evidence for the role of glucocorticoid receptor (GR) in regulation of AhR activity. […] Gene reporter assays were performed in agonist and antagonist mode (similarly as described in section 3.1.).

[8] = MTT cytotoxicity test in AZ-AHR cells; type: cell-based, human; settings: human; 24 h incubation, six passages; read-out: AZ-AHR viability - MTT IC50
Text: as §2
Prior to the agonist or antagonist experiments, the cytotoxicity of tested compounds was assessed using the conventional MTT assay. […] The vehicle was DMSO (0.1% v/v). After the treatment, a MTT test was performed.

[9] = target: T2, aryl hydrocarbon receptor AhR (Homo sapiens, UniProt P35869); test: AhR gene reporter assay in AZ-AHR cells, agonist mode; type: cell-based
T2 construct: endogenous in cells; host or cells: AZ-AHR (stably transfected reporter line derived from HepG2)
T2 sequence (P35869 11-848): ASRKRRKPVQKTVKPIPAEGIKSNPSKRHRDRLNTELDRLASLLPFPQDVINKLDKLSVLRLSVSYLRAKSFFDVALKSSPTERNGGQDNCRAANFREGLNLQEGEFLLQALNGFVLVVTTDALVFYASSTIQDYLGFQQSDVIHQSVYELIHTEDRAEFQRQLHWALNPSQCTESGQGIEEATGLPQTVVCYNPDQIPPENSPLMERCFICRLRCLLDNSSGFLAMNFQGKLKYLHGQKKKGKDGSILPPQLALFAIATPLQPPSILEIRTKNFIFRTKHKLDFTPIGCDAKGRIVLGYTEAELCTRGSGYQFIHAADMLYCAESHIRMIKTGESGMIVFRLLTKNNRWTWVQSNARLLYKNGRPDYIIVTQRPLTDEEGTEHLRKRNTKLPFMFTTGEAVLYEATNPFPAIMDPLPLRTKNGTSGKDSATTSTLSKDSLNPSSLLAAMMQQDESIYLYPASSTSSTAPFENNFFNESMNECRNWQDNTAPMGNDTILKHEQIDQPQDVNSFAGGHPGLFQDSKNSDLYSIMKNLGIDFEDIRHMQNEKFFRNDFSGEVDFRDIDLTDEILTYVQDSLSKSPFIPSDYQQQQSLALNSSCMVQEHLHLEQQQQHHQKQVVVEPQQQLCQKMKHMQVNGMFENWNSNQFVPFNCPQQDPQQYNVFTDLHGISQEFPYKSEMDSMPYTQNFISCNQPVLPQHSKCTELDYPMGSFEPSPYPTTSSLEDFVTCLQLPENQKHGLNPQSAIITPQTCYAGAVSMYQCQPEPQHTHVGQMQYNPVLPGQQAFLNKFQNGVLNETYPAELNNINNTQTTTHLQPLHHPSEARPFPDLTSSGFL
Text: as §2
(§4) Gene reporter assays were performed in two different experimental layouts. In agonist mode, cells were treated with increasing concentrations of tested compounds, and the half-maximal effective concentrations (EC50) were calculated.

[10] = target: T2, aryl hydrocarbon receptor AhR; test: AhR gene reporter assay in AZ-AHR cells, antagonist mode (TCDD 5 nM); type: cell-based; settings: 24 h, in the presence of TCDD 5 nM
Text: as §2, §4

[11] = MTT cytotoxicity test in primary human hepatocytes; type: cell-based; settings: primary human hepatocytes, read-out: viability, % of control value
Text: as §2
The cells were treated for 24 h with (+)-KET, (−)-KET and commercial rac-KET (1 µM, 30 µM, 50 µM), and with TCDD (5 nM) and vehicle (DMSO; 0.1% V/V). […] In the cytotoxicity assay, we found all forms of KET highly toxic against human hepatocytes at the concentration 50 µM.

[12] = target: T3, AhR (Mus musculus, UniProt P30561); test: EMSA with nuclear extracts from Hepa-1c1c7 cells (AhR-ARNT-DRE complex); type: cell-based; settings: Hepa-1c1c7 nuclear extracts, 50 µM, 2 h
T3 construct: endogenous in cells; host or cells: mouse hepatoma Hepa-1c1c7 cells (living cells treated 2 h, then nuclear extracts made)
T3 sequence (P30561 10-805 limits assumed): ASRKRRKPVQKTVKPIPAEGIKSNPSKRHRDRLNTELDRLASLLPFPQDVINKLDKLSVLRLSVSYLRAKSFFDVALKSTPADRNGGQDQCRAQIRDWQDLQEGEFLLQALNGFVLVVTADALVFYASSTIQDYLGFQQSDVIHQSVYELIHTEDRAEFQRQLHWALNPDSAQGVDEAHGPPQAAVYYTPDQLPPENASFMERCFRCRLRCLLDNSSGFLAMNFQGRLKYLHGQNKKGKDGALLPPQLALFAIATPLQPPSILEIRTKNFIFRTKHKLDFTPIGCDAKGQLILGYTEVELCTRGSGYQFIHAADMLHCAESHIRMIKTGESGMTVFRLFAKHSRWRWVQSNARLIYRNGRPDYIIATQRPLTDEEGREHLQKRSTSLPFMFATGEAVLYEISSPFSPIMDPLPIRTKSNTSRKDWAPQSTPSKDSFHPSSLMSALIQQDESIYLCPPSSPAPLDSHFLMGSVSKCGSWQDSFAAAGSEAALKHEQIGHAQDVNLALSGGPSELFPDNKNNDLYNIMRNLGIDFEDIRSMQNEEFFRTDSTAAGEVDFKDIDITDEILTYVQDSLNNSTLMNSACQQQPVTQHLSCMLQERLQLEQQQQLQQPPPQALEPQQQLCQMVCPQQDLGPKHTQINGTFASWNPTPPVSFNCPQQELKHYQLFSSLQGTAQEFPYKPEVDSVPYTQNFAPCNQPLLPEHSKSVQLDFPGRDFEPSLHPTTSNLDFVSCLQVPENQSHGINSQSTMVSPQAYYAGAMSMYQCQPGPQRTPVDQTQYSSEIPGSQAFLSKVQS
T3 sequence (P53762 whole entry partner): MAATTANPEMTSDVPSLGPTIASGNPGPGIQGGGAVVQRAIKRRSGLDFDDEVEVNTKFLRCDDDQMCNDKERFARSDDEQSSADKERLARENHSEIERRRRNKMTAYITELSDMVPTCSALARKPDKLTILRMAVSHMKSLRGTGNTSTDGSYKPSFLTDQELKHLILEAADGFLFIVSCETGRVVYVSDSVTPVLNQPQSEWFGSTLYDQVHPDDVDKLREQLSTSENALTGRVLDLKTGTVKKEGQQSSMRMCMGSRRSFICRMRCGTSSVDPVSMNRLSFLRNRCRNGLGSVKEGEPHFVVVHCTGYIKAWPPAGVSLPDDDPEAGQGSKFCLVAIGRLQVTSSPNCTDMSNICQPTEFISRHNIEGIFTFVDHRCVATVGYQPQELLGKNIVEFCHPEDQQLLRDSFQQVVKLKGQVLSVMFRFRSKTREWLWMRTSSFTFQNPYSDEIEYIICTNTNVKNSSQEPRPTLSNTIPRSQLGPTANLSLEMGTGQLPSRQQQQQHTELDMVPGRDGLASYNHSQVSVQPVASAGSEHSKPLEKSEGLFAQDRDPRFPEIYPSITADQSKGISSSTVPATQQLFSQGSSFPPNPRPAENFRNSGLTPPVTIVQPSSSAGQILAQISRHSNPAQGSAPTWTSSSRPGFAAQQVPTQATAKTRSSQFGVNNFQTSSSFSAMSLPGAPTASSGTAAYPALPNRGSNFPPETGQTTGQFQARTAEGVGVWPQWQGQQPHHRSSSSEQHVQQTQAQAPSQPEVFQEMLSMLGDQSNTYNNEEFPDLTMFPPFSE
Procedure: Electrophoretic mobility shift assay was performed in guinea pig cytosol and nuclear extract from mouse hepatoma cells. Hepa-1c1c7 cells were incubated for 2 h with tested compounds. Nuclear extracts procedure and EMSA analysis was performed as previously described (Soshilov & Denison; 2014). Guinea pig hepatic cytosol (8 mg/mL in HEDG) was incubated for 2 h in a room temperature water bath with tested compounds. An aliquot of the reaction was mixed with poly[dI•dC] and [^32P]-DRE (100.000 cpm), and AHR:DRE:[^32P]DRE complexes were resolved by gel retardation analysis, visualized by autoradiography and quantified by phosphorimager analysis (FujiFilm) of the dried gels.
We carried out the electrophoretic mobility shift assay (EMSA) to reveal whether effects of KET on AhR-CYP1A pathway involve transformation of AhR to DNA binding form, and whether these effects are enantiospecific. For this purpose, EMSA was performed in two experimental systems: (i) Hepatic guinea pig cytosol was treated for 2 hours with DMSO, 20 nM TCDD, (+)-KET, (−)-KET and commercial rac-KET (from Sigma) at 10 µM, 30 µM and 50 µM. All forms of KET transformed AhR to DNA binding form, but the activation was very weak and not statistically above background. There was a slightly stronger effect of (+)-KET and rac-KET as compared to (−)-KET, but the difference was not significant (Figure 4A). (ii) Since we obtained only weak signals in guinea pig liver cytosols, we also analyzed nuclear extracts from mouse hepatoma Hepa-1c1c7 cells treated for 2 hours with DMSO, TCDD (10 nM), (+)-KET (50 µM), (−)-KET (50 µM), commercial rac-KET (Sigma; 50 µM) or an equimolar mix of (+)/(−) enantiomers (50 µM total). […] The effects of (−)-KET were slightly stronger as compared to (+)-KET. […] In addition, we observed formation of the second band with lower molecular weight than AhR-ARNT-DRE, by purified KET enantiomers but not by TCDD and commercial KET.

[13] = tested on: AZ-GR cells; test: MTT cytotoxicity test in AZ-GR cells; type: cell-based, human; settings: Homo sapiens; 24 h incubation; read-out: AZ-GR viability - MTT IC50
Text: as §2, §3

[14] = target: T1, glucocorticoid receptor (GR); test: GR gene reporter assay in AZ-GR cells, antagonist mode (DEX 100 nM); type: cell-based; settings: 24 h
Text: as §2, §3

[15] = tested on: tyrosine aminotransferase (TAT) mRNA; test: TAT mRNA in HepG2 cells (qRT-PCR); type: cell-based, human; settings: HepG2, 1, 30, 50 µM, 24 h

Structure (SMILES): OC(Cn1cncn1)(Cn1cncn1)c1ccc(F)cc1F [Fluconazole, fluconazole]
- MIC [1]: 0.38 µg/mL (≈ 1.24 µM)
- MIC [2]: 1.5 µg/mL (≈ 4.9 µM)
- MIC [3]: 32 µg/mL (≈ 104 µM)
- MIC [4]: 48 µg/mL (≈ 157 µM)
- MIC [5]: 2 µg/mL (≈ 6.53 µM)
- MIC [6]: 6 µg/mL (≈ 19.6 µM)

Structure (SMILES): CC[C@@H]([C@H](C)O)n1ncn(-c2ccc(N3CCN(c4ccc(OC[C@@H]5CO[C@@](Cn6cncn6)(c6ccc(F)cc6F)C5)cc4)CC3)cc2)c1=O [Posaconazole, posaconazole]
- MIC [1]: 0.094 µg/mL (≈ 0.134 µM)
- MIC [2]: 0.064 µg/mL (≈ 0.0913 µM)
- MIC [3]: 0.25 µg/mL (≈ 0.357 µM)
- MIC [4]: 0.19 µg/mL (≈ 0.271 µM)
- MIC [5]: 0.032 µg/mL (≈ 0.0457 µM)
- MIC [6]: 0.19 µg/mL (≈ 0.271 µM)

Structure (SMILES): C[C@@H]1C[C@H]2[C@@H]3CCC4=CC(=O)C=C[C@]4(C)[C@@]3(F)[C@@H](O)C[C@]2(C)[C@@]1(O)C(=O)CO [DEX, dexamethasone]
- average induction of GR-dependent luciferase activity ([7]; 100 nM DEX, four passages): 70 fold

Structure (SMILES): CC(=O)N1CCN(c2ccc(OC[C@@H]3CO[C@@](Cn4ccnc4)(c4ccc(Cl)cc4Cl)O3)cc2)CC1 [(−)-KET, (2S,4R)-(−)-KET]
- IC50 at 24 h [8]: 72.7 ± 27.3 µM
- AZ-AHR gene reporter - agonist efficacy [9]: 5,2 ± 3,2%
- EC50 ([9]; 24 h, agonist mode): 2.2 µM
- IC50 [10]: 17.5 ± 1.7 µM
- viability at 24 h, 50 µM [11]: 37%
- transformation of AhR to DNA binding form (in words) [12]: only weakly transformed
- IC50 [13]: 71.6 ± 27.5 µM
- increase of luciferase activity, agonist mode ([7]; up to / at 100 µM, 24 h): did not induce luciferase activity
- IC50 ([14]; in the presence of DEX 100 nM): 26.7 ± 3.7 µM
- TAT mRNA induction (in words) [15]: strong, concentration-dependent induction

Structure (SMILES): C[C@@H](c1ncncc1F)[C@](O)(Cn1cncn1)c1ccc(F)cc1F [Voriconazole, voriconazole]
- MIC [1]: 0.016 µg/mL (≈ 0.0458 µM)
- MIC [2]: 0.016 µg/mL (≈ 0.0458 µM)
- MIC [3]: 0.19 µg/mL (≈ 0.544 µM)
- MIC [4]: 0.19 µg/mL (≈ 0.544 µM)
- MIC [5]: 0.023 µg/mL (≈ 0.0658 µM)
- MIC [6]: 0.19 µg/mL (≈ 0.544 µM)

Structure (SMILES): CC(=O)N1CCN(c2ccc(OCC3COC(Cn4ccnc4)(c4ccc(Cl)cc4Cl)O3)cc2)CC1 (racemic) [racemic KET obtained by mixing pure (+)-KET and pure (−)-KET in ratio 1∶1]
- transformation of AhR to DNA binding form (in words) [12]: much weaker and comparable with individual enantiomers
- antagonist effect in titration experiment (in words) ([14]; final concentration 50 µM, DEX 100 nM): much stronger as compared to commercial rac-KET
